Reference: PubChem BioAssay AID248 (DTP/NCI, 2004)
Where “and” joins values, the source holds several entries; their conditions need not be identical. Equal entries are not always repeated. Toxic doses and inconclusive results are not listed.

Tested on: L1210 leukemia ip in BDF1 mice, survival T/C
Assay: NCI In Vivo Anticancer Drug Screen. Data for tumor model L1210 Leukemia (intraperitoneal) in B6D2F1 (BDF1) mice
Settings: endpoint: mean survival time, higher = longer survival
Outline: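 Transplantable tumor model; survival measured in treated vs vehicle control mice. Value = treated/control.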

[1] = dose: 100.0 mg/kg/injection, schedule: Q01DX001 (ip), vehicle: carboxymethylcellulose (CMC)
[2] = dose: 100.0 mg/kg/injection, schedule: Q04DX002 (ip), vehicle: Klucel (hydroxypropylcellulose) (HPC)
[3] = dose: 200.0 mg/kg/injection, schedule: Q04DX002 (ip), vehicle: Klucel (hydroxypropylcellulose) (HPC)
[4] = dose: 100.0 mg/kg/injection, schedule: Q01DX009 (ip), vehicle: saline
[5] = dose: 100.0 mg/kg/injection, schedule: Q04DX003 (ip), vehicle: saline
[6] = dose: 75.0 mg/kg/injection, schedule: Q01DX001 (ip), vehicle: saline
[7] = dose: 150.0 mg/kg/injection, schedule: Q01DX001 (ip), vehicle: saline
[8] = dose: 300.0 mg/kg/injection, schedule: Q01DX001 (ip), vehicle: saline

C=CCN(CC=C)c1nc(Cl)nc(Cl)n1
T/C (dose: 50.0 mg/kg/injection, schedule: Q01DX001 (ip), vehicle: carboxymethylcellulose (CMC)): 106 % of control | T/C [1]: 98 % of control | T/C [2]: 105 % of control | T/C [3]: 101 % of control

CC(=O)OCCCc1ccccc1
T/C (dose: 100.0 mg/kg/injection, schedule: Q01DX009 (ip), vehicle: Klucel (hydroxypropylcellulose) (HPC)): 94 % of control | T/C (dose: 100.0 mg/kg/injection, schedule: Q04DX003 (ip), vehicle: Klucel (hydroxypropylcellulose) (HPC)): 98 % of control | T/C (dose: 200.0 mg/kg/injection, schedule: Q01DX009 (ip), vehicle: Klucel (hydroxypropylcellulose) (HPC)): 95 % of control | T/C (dose: 200.0 mg/kg/injection, schedule: Q04DX003 (ip), vehicle: Klucel (hydroxypropylcellulose) (HPC)): 97 % of control | T/C (dose: 400.0 mg/kg/injection, schedule: Q01DX009 (ip), vehicle: Klucel (hydroxypropylcellulose) (HPC)): 94 % of control | T/C (dose: 400.0 mg/kg/injection, schedule: Q04DX003 (ip), vehicle: Klucel (hydroxypropylcellulose) (HPC)): 94 % of control

CCOC(=N)N1C(N)=NC(=O)C1c1ccccc1 (stereo unspecified)
T/C [4]: 105 % of control | T/C [5]: 110 % of control | T/C (dose: 200.0 mg/kg/injection, schedule: Q01DX009 (ip), vehicle: saline): 110 % of control | T/C (dose: 200.0 mg/kg/injection, schedule: Q04DX003 (ip), vehicle: saline): 103 % of control | T/C (dose: 400.0 mg/kg/injection, schedule: Q01DX009 (ip), vehicle: saline): 96 % of control | T/C (dose: 400.0 mg/kg/injection, schedule: Q04DX003 (ip), vehicle: saline): 105 % of control

O=C(CCl)NC1C2CC3CC(C2)CC1C3 (stereo unspecified)
T/C [2]: 104 % of control | T/C [3]: 101 % of control | T/C (dose: 400.0 mg/kg/injection, schedule: Q04DX002 (ip), vehicle: Klucel (hydroxypropylcellulose) (HPC)): 96 % of control

COc1cc(N(CCCl)CCCl)c(OC)cc1/C=N\Nc1nncn1N
T/C (dose: 1.2 mg/kg/injection, schedule: Q01DX015 (ip), vehicle: carboxymethylcellulose (CMC)): 109 % of control | T/C (dose: 1.4 mg/kg/injection, schedule: Q01DX015 (ip), vehicle: carboxymethylcellulose (CMC)): 105 % of control | T/C (dose: 2.2 mg/kg/injection, schedule: Q01DX015 (ip), vehicle: carboxymethylcellulose (CMC)): 107 % of control | T/C (dose: 2.5 mg/kg/injection, schedule: Q01DX015 (ip), vehicle: carboxymethylcellulose (CMC)): 109 % of control | T/C (dose: 3.3 mg/kg/injection, schedule: Q01DX015 (ip), vehicle: carboxymethylcellulose (CMC)): 110 % of control | T/C (dose: 15.0 mg/kg/injection, schedule: Q01DX015 (ip), vehicle: carboxymethylcellulose (CMC)): 96 % of control and 103 % of control | T/C (dose: 33.0 mg/kg/injection, schedule: Q01DX001 (ip), vehicle: carboxymethylcellulose (CMC)): 124 % of control | T/C [1]: 105 % of control

CC(=O)Nc1ccc(S(=O)(=O)Cl)cc1Cl
T/C [6]: 96 % of control | T/C [7]: 98 % of control | T/C [8]: 99 % of control

NC(CSc1ccc([N+](=O)[O-])cc1Cl)C(=O)O (stereo unspecified)
T/C [6]: 100 % of control | T/C [7]: 90 % of control | T/C [8]: 92 % of control

COc1ccc(/C=C/C(=O)c2cc(C(=O)O)c(OC)cc2OC)cc1OC
T/C (dose: 12.5 mg/kg/injection, schedule: Q01DX009 (ip), vehicle: saline with Tween-80): 111 % of control | T/C (dose: 25.0 mg/kg/injection, schedule: Q01DX009 (ip), vehicle: saline with Tween-80): 93 % of control | T/C (dose: 50.0 mg/kg/injection, schedule: Q01DX009 (ip), vehicle: saline with Tween-80): 98 % of control | T/C (dose: 100.0 mg/kg/injection, schedule: Q01DX009 (ip), vehicle: saline with Tween-80): 98 % of control | T/C (dose: 200.0 mg/kg/injection, schedule: Q01DX009 (ip), vehicle: saline with Tween-80): 95 % of control

CNC(=O)c1ccc(NC(=O)Nc2cccc(C3=NCCN3)c2)cc1NC(=O)Nc1cccc(C2=NCCN2)c1
T/C (dose: 4.5 mg/kg/injection, schedule: Q01DX Z (ip), vehicle: carboxymethylcellulose (CMC)): 97 % of control | T/C (dose: 9.0 mg/kg/injection, schedule: Q01DX Z (ip), vehicle: carboxymethylcellulose (CMC)): 113 % of control | T/C (dose: 36.0 mg/kg/injection, schedule: Q01DX Z (ip), vehicle: carboxymethylcellulose (CMC)): 160 % of control

COC(=O)CCN1CCN(c2ccccc2)CC1
T/C (dose: 100.0 mg/kg/injection, schedule: Q01DX001 (ip), vehicle: saline): 98 % of control | T/C (dose: 200.0 mg/kg/injection, schedule: Q01DX001 (ip), vehicle: saline): 98 % of control | T/C (dose: 400.0 mg/kg/injection, schedule: Q01DX001 (ip), vehicle: saline): 97 % of control

CC(C)(N)CNc1ccccc1
T/C (dose: 25.0 mg/kg/injection, schedule: Q01DX009 (ip), vehicle: saline): 98 % of control | T/C (dose: 25.0 mg/kg/injection, schedule: Q04DX003 (ip), vehicle: saline): 97 % of control | T/C (dose: 50.0 mg/kg/injection, schedule: Q01DX009 (ip), vehicle: saline): 98 % of control | T/C (dose: 50.0 mg/kg/injection, schedule: Q04DX003 (ip), vehicle: saline): 92 % of control | T/C [4]: 100 % of control | T/C (dose: 100.0 mg/kg/injection, schedule: Q04DX003 (ip), vehicle: saline with Tween-80): 98 % of control | T/C [5]: 105 % of control
